Where a SMILES comes first, the peptide text is derived from it. The star is where a group is joined. Cbz = O=C(OCc1ccccc1)*
What was measured:
[1] = (§1) Growth inhibition of human HEK293T cells at 10 uM after 24 hrs by MTS assay relative to control; format: cell-based, HEK-293T; conditions: HEK293T cells, read-out: GI
[2] = (§2) Growth inhibition of human LO2 cells at 10 uM after 24 hrs by MTS assay relative to control; format: cell-based, L02; conditions: LO2 cells, read-out: GI
MCF7 [3] = assay: Cytotoxicity against human MCF7 cells assessed as reduction in cell viability after 24 hrs by MTS assay; format: functional, cell-based; conditions: MCF7, 24 h
SW480 [4] = assay: Cytotoxicity against human SW480 cells assessed as reduction in cell viability after 24 hrs by MTS assay; format: functional, cell-based; conditions: SW480, 24 h
HepG2 [5] = assay: Cytotoxicity against human HepG2 cells assessed as reduction in cell viability after 24 hrs by MTS assay; format: functional, cell-based; conditions: HepG2, 24 h
MCF7 [6] = assay: Growth inhibition of human MCF7 cells at 10 uM after 24 hrs by MTS assay relative to control; format: functional; conditions: MCF7, 24 h, read-out: GI
SW480 [7] = assay: Growth inhibition of human SW480 cells at 10 uM after 24 hrs by MTS assay relative to control; format: functional; conditions: SW480, 24 h, read-out: GI
HepG2 [8] = assay: Growth inhibition of human HepG2 cells at 10 uM after 24 hrs by MTS assay relative to control; format: functional; conditions: HepG2, 24 h, read-out: GI
RAW264.7 [9] = assay: Antiinflammatory activity in mouse RAW264.7 cells assessed as inhibition of LPS-induced NO production at 10 uM after 24 hrs by Griess reagent based assay relative to control; format: functional; conditions: RAW264.7, 24 h
Homo sapiens [10] = organism: Homo sapiens; assay: Inhibition of LPS-induced NF-kappaB transcription (unknown origin) expressed in human SW480 cells at 10 uM by luciferase reporter gene assay; format: cell-based
[11] = target: T1, Tyrosine-protein phosphatase non-receptor type 1 (Homo sapiens) (UniProt P18031); assay: Inhibition of recombinant human PTP1B using p-nitrophenyl phosphate as substrate at 10 uM after 30 mins relative to control
T1 sequence (whole entry): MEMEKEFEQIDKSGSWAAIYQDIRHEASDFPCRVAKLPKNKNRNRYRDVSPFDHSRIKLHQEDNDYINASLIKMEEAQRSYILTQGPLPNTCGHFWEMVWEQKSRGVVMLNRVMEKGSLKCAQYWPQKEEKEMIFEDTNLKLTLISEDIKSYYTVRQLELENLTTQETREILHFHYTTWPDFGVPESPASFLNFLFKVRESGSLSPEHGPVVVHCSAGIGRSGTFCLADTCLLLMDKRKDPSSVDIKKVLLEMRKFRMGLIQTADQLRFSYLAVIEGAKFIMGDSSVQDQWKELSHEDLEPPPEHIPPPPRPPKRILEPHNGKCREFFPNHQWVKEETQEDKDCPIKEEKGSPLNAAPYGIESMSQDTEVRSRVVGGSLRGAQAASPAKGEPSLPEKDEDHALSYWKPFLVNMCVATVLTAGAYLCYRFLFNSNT

[12] = target: Mushroom tyrosinase (Agaricus bisporus) (UniProt O42713+Q00024+C7FF04+C7FF05); assay: Inhibition of mushroom tyrosinase at 10 uM using L-tyrosine as substrate incubated for 15 mins followed by substrate addition relative to control
RAW264.7 [13] = assay: Antiinflammatory activity in mouse RAW264.7 cells assessed as inhibition of LPS-induced NO production after 24 hrs by Griess reagent based assay; format: functional, cell-based; conditions: RAW264.7, 24 h
[14] = Inhibition of LPS-induced NF-kappaB transcription (unknown origin) expressed in human SW480 cells by luciferase reporter gene assay; format: cell-based
Mushroom tyrosinase = Mushroom tyrosinase (Agaricus bisporus, UniProt O42713+Q00024+C7FF04+C7FF05); assay: Inhibition of mushroom tyrosinase using L-tyrosine as substrate incubated for 15 mins followed by substrate addition
Homo sapiens [15] = organism: Homo sapiens; assay: Inhibition of LPS-induced NF-kappaB transcription (unknown origin) expressed in human SW480 cells at 20 uM by luciferase reporter gene assay; format: cell-based
HEK-293T = assay: as §1; format: cell-based; conditions: hek-293t, 24 h, 10 µM
L02 = assay: as §2; format: cell-based; conditions: l02, 24 h, 10 µM
[16] = target: T2, Tyrosine-protein phosphatase non-receptor type 1 (Homo sapiens, UniProt P18031); assay: Inhibition of recombinant human PTP1B using p-nitrophenyl phosphate as substrate after 30 mins
T2 sequence (P18031 whole entry): T1 sequence (whole entry)

RAW264.7 [17] = assay: Antiinflammatory activity in mouse RAW264.7 cells assessed as inhibition of LPS-induced NO production at 20 uM after 24 hrs by Griess reagent based assay relative to control; format: functional; conditions: RAW264.7, 24 h

Structure (SMILES)	inhibition at 24 h, 10 µM [1] [%]	inhibition at 24 h, 10 µM [2] [%]	IC50 (MCF7 [3]) [µM]	IC50 (SW480 [4]) [µM]	IC50 (HepG2 [5]) [µM]	inhibition of growth at 10 µM (MCF7 [6]) [%]	inhibition of growth at 10 µM (SW480 [7]) [%]	inhibition of growth at 10 µM (HepG2 [8]) [%]	inhibition at 10 µM (RAW264.7 [9]) [%]	inhibition (Homo sapiens [10]) [%]	inhibition [11] [%]	inhibition [12] [%]	IC50 (RAW264.7 [13]) [µM]	IC50 [14] [µM]	IC50 (Mushroom tyrosinase) [µM]	inhibition (Homo sapiens [15]) [%]	Activity (HEK-293T)	Activity (L02)	IC50 [16] [µM]	inhibition at 20 µM (RAW264.7 [17]) [%]
CC(C)=CCc1c(O)cc2occ(-c3ccc4c(c3O)C=CC(C)(C)O4)c(=O)c2c1O	39	16	8.58	6.72	7.07	79	99	75	26	23	34	7	–	–	–	–	–	–	–	–
COc1c(/C=C/C(=O)c2ccc(O)c(O)c2)ccc(O)c1CC=C(C)C	28	9	–	–	–	21	21	5	85	80	75	11	9.35	2.44	–	–	–	–	–	–
CC1(C)C=Cc2c(ccc3c2OC[C@@H](c2ccc(O)cc2O)C3)O1 [GLABRIDIN]	2	3	–	–	–	0	32	7	7	0	38	98	–	–	0.1	–	–	–	–	–
CC(C)C[C@@H](C=O)NC(=O)[C@H](CC(C)C)NC(=O)[C@H](CC(C)C)NC(=O)OCc1ccccc1 (Cbz-Leu-Leu-Leu-aldehyde)	–	–	–	–	–	–	–	–	–	–	–	–	–	–	–	70	–	–	–	–
CC(C)=CCc1c(O)ccc(-c2coc3c(CC=C(C)C)c(O)cc(O)c3c2=O)c1O	10	20	7.47	4.62	5.66	88	98	80	11	19	96	7	–	–	–	–	Non-Toxic	Non-Toxic	0.5	–
C=C(C)[C@H](C)c1cc(/C=C/C(=O)c2ccc(O)cc2)c(OC)cc1O [LICOCHALCONE E]	34	22	–	–	–	42	44	23	55	72	21	8	9.09	3.83	–	–	–	–	–	–
CC1(C)C=Cc2c(O)ccc(-c3coc4cc(O)cc(O)c4c3=O)c2O1	1	24	–	–	–	28	15	22	21	12	36	90	–	–	0.8	–	–	–	–	–
COc1cc(/C=C/C(=O)CC(=O)/C=C/c2ccc(O)c(OC)c2)ccc1O [CURCUMIN]	–	–	–	–	–	–	–	–	–	–	–	–	–	–	–	–	–	–	–	70
COc1c(/C=C/C(=O)c2ccc(O)cc2)ccc(O)c1O	7	6	–	–	–	13	9	4	71 to 73	4	64	8	8.78	–	–	–	–	–	–	–
CC(C)=CCc1cc([C@@H]2CC(=O)c3c(O)cc(O)c(CC=C(C)C)c3O2)ccc1O [LESPEDEZAFLAVANONE B]	6	12	13.1	12.5	–	86	81	24	14	34	46	5	–	–	–	–	Non-Toxic	Non-Toxic	–	–
CC(C)=CCc1cc([C@@H]2CC(=O)c3ccc(O)c(CC=C(C)C)c3O2)ccc1O [GLABROL]	36	16	7.62	5.15	2.83	97	98	98	6	21	92	8	–	–	–	–	–	–	0.31	–
CC(C)=CCc1c(O)cc(O)c2c(=O)cc(-c3ccc(O)cc3)oc12	–	–	–	–	–	0	19	21	58	3	18	2	3.83	–	–	–	–	–	–	–
CC1(C)C=Cc2cc(-c3coc4cc(O)cc(O)c4c3=O)cc(O)c2O1	0	7	–	–	–	15	29	5	14	8	58	95	–	–	0.25	–	–	–	–	–
CC(C)=CCc1c(O)cc2occ(-c3cc(O)c4c(c3)C=CC(C)(C)O4)c(=O)c2c1O	11	5	7.27	7.87	3.54	92	82	89	0	14	92	1	–	–	–	–	Non-Toxic	Non-Toxic	1.48	–

Reference: ChEMBL document CHEMBL4033705, “Screening for bioactive natural products from a 67-compound library of Glycyrrhiza inflata” (Bioorg Med Chem, 2017)
